Measurements published in article PMC3202585, “Venom of Parasitoid, Pteromalus puparum, Suppresses Host, Pieris rapae, Immune Promotion by Decreasing Host C-Type Lectin Gene Expression” (PLoS ONE, 2011).

Target: T1, Pr-CTL (Pieris rapae, UniProt G5CJE6)
T1 construct: two tandem CRDs (residues 41-151 and 184-302)
T1 sequence (G5CJE6 20-313): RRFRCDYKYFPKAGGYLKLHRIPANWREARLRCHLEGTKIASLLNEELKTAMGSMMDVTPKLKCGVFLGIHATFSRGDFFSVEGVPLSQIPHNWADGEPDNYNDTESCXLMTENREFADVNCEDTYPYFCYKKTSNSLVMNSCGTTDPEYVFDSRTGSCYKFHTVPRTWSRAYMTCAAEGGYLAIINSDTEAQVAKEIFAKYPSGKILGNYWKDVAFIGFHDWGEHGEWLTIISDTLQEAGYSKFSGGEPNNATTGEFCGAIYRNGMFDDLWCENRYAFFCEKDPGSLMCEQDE
Test: carbohydrate binding assay (data not shown)
Conditions: calcium-dependent, described as agglutination of carbohydrates

| SMILES | carbohydrate binding assay (data not shown) |
| --- | --- |
| OC[C@H]1OC(O)[C@H](O)[C@@H](O)[C@H]1O (some centres unmarked) [galactose] | agglutination of different kind of carbohydrates, such as mannose, galactose and peptidoglycan (data not shown) |
| OC[C@H]1OC(O)[C@@H](O)[C@@H](O)[C@@H]1O (some centres unmarked) [mannose] | recombinant Pr-CTL possesses the calcium-dependent agglutination of different kind of carbohydrates, such as mannose |
